*1 amine or outer side, *2 acyl side, *3 side chain or, on linkers, in order; H or OH if unused. Where a SMILES comes first, the peptide text is derived from it. Bridges are numbered along the chain shown (N, C = ends). [ ]: non-standard residue; d: D form. Abu(4-yl) = O=C([C@H](CC[*:3])N[*:1])[*:2]; X1 = O=C([C@@H](O)CS[*:2])[*:1]; X2 = O=C(CCC[*:2])[*:1]; Mpa = O=C(O)CCS
Columns and labels:
[1] = target: T1, Oxytocin receptor (Rattus norvegicus) (UniProt P70536); experiment: Activity at oxytocin receptor in rat uterus in presence of 0.5 mM Mg2+; format: tissue-based
T1 sequence (whole entry): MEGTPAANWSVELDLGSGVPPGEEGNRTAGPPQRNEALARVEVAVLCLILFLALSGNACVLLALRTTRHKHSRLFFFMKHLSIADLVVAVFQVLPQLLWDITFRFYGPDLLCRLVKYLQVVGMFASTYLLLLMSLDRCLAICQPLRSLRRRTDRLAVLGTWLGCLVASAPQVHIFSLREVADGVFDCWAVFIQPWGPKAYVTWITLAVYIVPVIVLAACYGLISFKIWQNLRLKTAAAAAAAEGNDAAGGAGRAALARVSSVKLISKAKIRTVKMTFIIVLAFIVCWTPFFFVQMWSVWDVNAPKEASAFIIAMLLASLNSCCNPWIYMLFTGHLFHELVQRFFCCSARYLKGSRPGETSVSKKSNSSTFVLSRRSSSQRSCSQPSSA

Rattus norvegicus [2] = organism: Rattus norvegicus; experiment: Antidiuretic activity in rat; format: ADME, organism-based, Urine; conditions: in vivo
Oryctolagus cuniculus = organism: Oryctolagus cuniculus; experiment: Oxytocic activity in rabbit assessed as milk ejection; format: functional
[3] = target: T1, Oxytocin receptor (Rattus norvegicus); experiment: Activity at oxytocin receptor in rat uterus relative to oxytocin; format: tissue-based
[4] = target: T1, Oxytocin receptor (Rattus norvegicus); experiment: Activity at oxytocin receptor in rat uterus; format: tissue-based
Rattus norvegicus [5] = organism: Rattus norvegicus; experiment: Vasopressor activity in rat; format: ADME, organism-based; conditions: in vivo
[6] = Ratio of activity at oxytocin receptor in rat uterus to vasopressor activity in rat
[7] = Ratio of activity at oxytocin receptor in rat uterus to antidiuretic activity in rat; parameters: species or system Urine
[8] = target: T1, Oxytocin receptor (Rattus norvegicus); experiment: Activity at oxytocin receptor in rat mammary strip
Rattus norvegicus [9] = organism: Rattus norvegicus; experiment: Oxytocic activity in rat assessed as milk ejection; format: functional

Structure (SMILES)	Activity [1] [U/mg]	Activity (Rattus norvegicus [2]) [U/mg]	Ratio [3]	Activity [4] [U/mg]	Activity (Rattus norvegicus [5]) [U/mg]	Activity [8] [U/mg]	Activity (Oryctolagus cuniculus) [U/mg]	Ratio [6]	Ratio [7]	Activity (Rattus norvegicus [9]) [U/mg]
CC[C@H](C)[C@@H]1NC(=O)[C@H](Cc2ccc(O)cc2)NC(=O)[C@@H](N)CSSC[C@@H](C(=O)N2CCC[C@H]2C(=O)N[C@@H](CC(C)C)C(=O)NCC(N)=O)NC(=O)[C@H](CC(N)=O)NC(=O)[C@H]([C@@H](C)O)NC1=O (H-CYITNCPLG-NH2; disulfide 1-6)	719	1.8	> 4	923	0.43	–	543	2146	513	–
CC[C@H](C)[C@@H]1NC(=O)[C@H](Cc2ccc(O)cc2)NC(=O)CCCSC[C@@H](C(=O)N2CCC[C@H]2C(=O)N[C@@H](CC(C)C)C(=O)NCC(N)=O)NC(=O)[C@H](CC(N)=O)NC(=O)[C@H](CCC(N)=O)NC1=O (YIQNCPLG-NH2; linker N-5 via X2)	921	24.1	4	1900	17.5	581	–	108	79	–
CC[C@H](C)[C@@H]1NC(=O)[C@H](Cc2ccc(O)cc2)NC(=O)[C@@H](O)CSSC[C@@H](C(=O)N2CCC[C@H]2C(=O)N[C@@H](CC(C)C)C(=O)NCC(N)=O)NC(=O)[C@H](CC(N)=O)NC(=O)[C@H]([C@@H](C)O)NC1=O (YITNCPLG-NH2; linker N-5 via X1)	937	5.3	8	4180	4.92	378	–	849	788	808
CC[C@H](C)[C@@H]1NC(=O)[C@H](Cc2ccc(O)cc2)NC(=O)CCSSC[C@@H](C(=O)N2CCC[C@H]2C(=O)N[C@@H](CC(C)C)C(=O)NCC(N)=O)NC(=O)[C@H](CC(N)=O)NC(=O)[C@H]([C@@H](C)O)NC1=O ([Mpa]YITNCPLG-NH2; disulfide 1-6)	242	0.9	–	149	< 0.1	–	385	–	165	–

The next lines start with results.

Activity [1] [U/mg]	Activity (Rattus norvegicus [2]) [U/mg]	Ratio [3]	Activity [4] [U/mg]	Activity (Rattus norvegicus [5]) [U/mg]	Activity [8] [U/mg]	Structure (SMILES)	Activity (Oryctolagus cuniculus) [U/mg]	Ratio [6]	Ratio [7]	Activity (Rattus norvegicus [9]) [U/mg]
760	–	–	–	–	–	CC[C@H](C)[C@@H]1NC(=O)[C@H](Cc2ccc(O)cc2)NC(=O)CCSSC[C@H](C(=O)N2CCC[C@H]2C(=O)N[C@@H](CC(C)C)C(=O)NCC(N)=O)NC(=O)[C@H](CC(N)=O)NC(=O)[C@H](CCC(N)=O)NC1=O	–	–	–	–
–	9.3	–	734	2.95	177	CC[C@H](C)[C@@H]1NC(=O)[C@H](Cc2ccc(O)cc2)NC(=O)[C@@H](N)CCSC[C@@H](C(=O)N2CCC[C@H]2C(=O)N[C@@H](CC(C)C)C(=O)NCC(N)=O)NC(=O)[C@H](CC(N)=O)NC(=O)[C@H](CCC(N)=O)NC1=O (H-[Abu(4-yl)]YIQNCPLG-NH2; thioether 1-6)	–	249	79	–
868	16.6	2.45	1280	14.7	363	CC[C@H](C)[C@@H]1NC(=O)[C@H](Cc2ccc(O)cc2)NC(=O)[C@@H](O)CSSC[C@@H](C(=O)N2CCC[C@H]2C(=O)N[C@@H](CC(C)C)C(=O)NCC(N)=O)NC(=O)[C@H](CC(N)=O)NC(=O)[C@H](CCC(N)=O)NC1=O (YIQNCPLG-NH2; linker N-5 via X1)	–	50	77	694
–	19	–	–	1.44	–	CC[C@H](C)[C@@H]1NC(=O)[C@H](Cc2ccc(O)cc2)NC(=O)CCSSC[C@@H](C(=O)N2CCC[C@H]2C(=O)N[C@@H](CC(C)C)C(=O)NCC(N)=O)NC(=O)[C@H](CC(N)=O)NC(=O)[C@H](CCC(N)=O)NC1=O [DEMOXYTOCIN]	541	558	42	–
486	4	> 7	520	–	–	CC[C@H](C)[C@@H]1NC(=O)[C@H](Cc2ccc(O)cc2)NC(=O)[C@@H](N)CSSC[C@@H](C(=O)N2CCC[C@H]2C(=O)N[C@@H](CC(C)C)C(=O)NCC(N)=O)NC(=O)[C@H](CC(N)=O)NC(=O)[C@H](CCC(N)=O)NC1=O [OXYTOCIN]	474	–	–	–

Source: ChEMBL document CHEMBL3272160, “Synthesis and some pharmacological properties of [1-(L-2-hydroxy-3-mercaptopropanoic acid), 4-threonine]oxytocin (hydroxy [4-thr]oxytocin), a peptide with strikingly high oxytocic potency and of [1-(L-2-hydroxy-3-mercaptopropanoic acid)]oxytocin (hydroxy-oxytocin)” (J Med Chem, 1976)
